Earlier results, collected in patent publication US20090023742A1, “THIAZOLONES FOR USE AS PI3 KINASE INHIBITORS” (priority 2006, published 2009).

Test system: Class I PI3-kinases
Conditions: each of the four Class I PI3-kinases; read-out: IC50 values against each of the various Class I PI3-kinases

For wortmannin, the IC50 is listed as 1 to 10 nM.
